Results reported in US20210145722A1, “ACTIVE SUBSTANCE COMBINATIONS OF N-(4-AMINO-2-METHYLQUINOLIN-6-YL)-2-((4-ETHYLPHENOXY)METHYL)BENZAMIDE AND ONE OR MORE COSMETICALLY OR DERMATOLOGICALLY ACCEPTABLE FRAGRANCES” (BEIERSDORF AG, priority 2017, published 2021).
Read-outs that look alike come from different tables or passages of the source.

Legend:
[1] = LDH (lactate dehydrogenase) cytotoxicity assay, fibroblasts
Protocol: The third assay performed is the LDH (lactate dehydrogenase) cytotoxicity assay. In this assay, the metabolic enzyme LDH is detected in the medium supernatant of the cell monolayer by adding a substrate for the enzyme to the cell culture supernatant. Reaction of the latter produces a color change, which is determined photometrically. The magnitude of the color change correlates here with the amount of LDH in the cell culture supernatant.
For all assays, the active substances were present as 1000× stocks dissolved to 10 mM in DMSO and were diluted 1:1000 in the appropriate cell culture medium for use.

subcutaneous adipocytes = assay: Lipid assay (AdipoRed staining of differentiated adipocytes); format: cell-based; details: combination with 10 ng/ml N-(4-amino-2-methylquinolin-6-yl)-2-((4-ethylphenoxy)methyl)benzamide; one week treatment
Protocol: The lipid assay is performed on subcutaneous adipocytes. Cell culture dishes are inoculated with preadipocytes, which undergo differentiation into adipocytes. This is followed by treatment with the active substance for one week, during which the cells synthesize lipids and store them in vesicles. The total amount of lipid as a function of active substance effects is determined at the end of the culture period. This is done by staining the cell monolayer with the lipophilic fluorescent dye AdipoRed, followed by quantification by fluorescence spectroscopy.

dermal fibroblasts = assay: BrdU viability assay (cell division rate); format: cell-based; details: combination with 10 ng/ml N-(4-amino-2-methylquinolin-6-yl)-2-((4-ethylphenoxy)methyl)benzamide; 24 h treatment
Protocol: For the viability assay, dermal fibroblasts were treated with active substances/active substance combinations in the cell culture medium for 24 h and during this time were provided with BrdU (5-bromodeoxyuridine). The cells take up this synthetic nucleic acid, which is detectable by fluorescence detection, and incorporate it into newly synthesized genetic material during cell division. The fluorescence of the cell monolayer is then measured after 24 h, the intensity of which is ultimately a measure of the cell division rate during treatment with the active substance. This allows conclusions to be drawn about the effect of the individual active substances on cell viability.

[2] = combination with 10 ng/ml N-(4-amino-2-methylquinolin-6-yl)-2-((4-ethylphenoxy)methyl)benzamide, table does not say whether fibroblasts or adipocytes

Row | SMILES | Assay in which the combination showed better activity than the corresponding active substance alone: LDH [1, 2] | Assay in which the combination showed better activity than the corresponding active substance alone: Lipid (subcutaneous adipocytes) | further results
1 | CCCCCCOC(=O)c1ccccc1O [Hexyl salicylate] | LDH | Lipid | 
2 | CC(C)=CCCC(C)=CC=O [Citral 95, Citral] |  |  | Assay in which the combination showed better activity than the corresponding active substance alone: BrdU (dermal fibroblasts): BrdU
3 | C=C(C)[C@H]1CC=C(C)CC1 [Limonene D pure, Limonene D] |  | Lipid | 
4 | CC(CC=O)CCCC(C)(C)O (centres unmarked) [Hydroxycitronellal] | LDH |  | 
5 | C=CC(C)(O)CCC=C(C)CC (mixture of isomers) [Ethyl linalool] |  | Lipid | 
6 | CC(C=O)Cc1ccc(C(C)(C)C)cc1 (centres unmarked) [Lilial] | LDH |  | 
7 | O=C1CCCCCCCCCCCCCCO1 [Macrolide supra] |  | Lipid | 
8 | C=CCc1ccc(O)c(OC)c1 [Eugenol] |  |  | Assay in which the combination showed better activity than the corresponding active substance alone: BrdU (dermal fibroblasts): BrdU
9 | CCOc1cc(C=O)ccc1O [Ethyl vanillin] |  | Lipid | 
10 | C=CC(C)CCCC(C)(C)O (centres unmarked) [Dihydromyrcenol] |  | Lipid | 
11 | O=C(C=Cc1ccccc1)OCc1ccccc1 [Benzyl cinnamate] |  | Lipid | 
12 | CC(=O)C1(C)CC2=C(CCCC2(C)C)CC1C (centres unmarked) [Iso E Super] | LDH | Lipid | 
13 | CC(C)=CCCC(C)=CCCC(C)=CCO [Farnesol] | LDH |  | 
14 | CC/C=C\CCO [Hexenol cis-3] | LDH | Lipid | Assay in which the combination showed better activity than the corresponding active substance alone: BrdU (dermal fibroblasts): BrdU
15 | OCc1ccccc1 [Benzyl alcohol DD, Benzyl alcohol] |  | Lipid | 
16 | OCCc1ccccc1 [Phenylethyl alcohol] |  |  | Assay in which the combination showed better activity than the corresponding active substance alone: BrdU (dermal fibroblasts): BrdU
17 | O=C(OCc1ccccc1)c1ccccc1O [Benzyl salicylate] |  |  | Assay in which the combination showed better activity than the corresponding active substance alone: LDH [1]: LDH
18 | CCCCCC1C(=O)CCC1CC(=O)OC (centres unmarked) [Hedion] | LDH | Lipid | Assay in which the combination showed better activity than the corresponding active substance alone: BrdU (dermal fibroblasts): BrdU
19 | C=CC(C)(O)CCC=C(C)C (centres unmarked) [Linalool aroma, Linalool] | LDH | Lipid | 
20 | CC(C)=CCCC(C)CCO (centres unmarked) [Citronellol 950, Citronellol] | LDH | Lipid | 
21 | CCCCCC#CC(=O)OC [Methyl heptine carbonate] | LDH | Lipid | 
22 | C=CC(C)(CCC=C(C)C)OC(C)=O (centres unmarked) [Linalyl acetate] | LDH |  | 
23 | Cc1ccc(C(C)C)c(O)c1 [Thymol cryst., Thymol] | LDH |  | 
